Assay results: patent US11413324B2, “Compositions and methods for treating peripheral nerve disease, disorders, and injuries” (University of Virginia Patent Foundation, priority 2017, dated 2022)
Entries after “also recorded” stand apart in the source; their conditions may differ. Where a name gives a salt, the structure may show the parent alone.

What was measured:
peripheral olig2^+ OPCs = assay: Quantification of peripheral olig2+ OPCs at 3 dpf in drug-treated olig2:dsred larvae; assay type: in vivo, zebrafish; conditions: for number of peripheral olig2+ OPCs: 24 to 72 hpf; for peripherally migrated OPCs at 3 dpf after neurotransmitter receptor antagonist: compared to control
larvae = assay: Toxicity, death or morphological defects of treated or injected larvae; conditions: 40 μM, 36 to 72 hpf, n=1 survivor
peripheral olig2^+ cells = assay: Chemical screen of the LOPAC 1280 library: peripheral olig2+ cells scored in olig2:dsred larvae at 72 hpf; assay type: in vivo, zebrafish; conditions: 4 μM, 24 to 72 hpf, pilot experiment, positive control
Eos^+ cells = assay: Number of Eos+ cells (Schwann cells and MEP glia) per motor nerve in sox10:eos larvae; assay type: in vivo, zebrafish; conditions: 36 to 72 hpf, 72 hpf sox10:eos larvae, p=0.08
[1] = tested on: peripheral OPCs myelinating spinal motor axons; assay: gpr126 mutant peripheral neuropathy model: peripheral OPCs and myelination of spinal motor nerves; assay type: in vivo, zebrafish
Excerpt: This led us to hypothesize that OPCs could be pharmacologically recruited onto peripheral nerves in order to myelinate them. […] However, in these studies, OPCs populated the nerve in the context of genetic mutations resulting in the death or absence of both SCs and MEP glia. Therefore, we wanted to determine if it was possible to recruit OPCs to myelinate peripheral motor nerves in a model more closely resembling human peripheral neuropathies, in which SCs are present, but fail to myelinate. To do this, we used zebrafish harboring a mutation in g protein coupled receptor 126 (gpr126), a model of peripheral neuropathy in which SCs ensheath, but fail to myelinate peripheral nerves (Monk et al., 2009). OLs are present in normal numbers in these mutants, and central myelination is completely normal (Monk et al., 2009).
Therefore, we tested whether treatment with the A2a AR antagonist would result in peripherally-migrated OPCs ensheathing peripheral spinal motor nerves in these mutants. […] We then performed in vivo, time-lapse imaging on nkx2.2a:megfp;olig2:dsred;gpr126^−/− mutants in order to visualize whether these peripheral OPCs initiated myelination of peripheral nerves. The transgene nkx2.2a:megfp is expressed by pre-myelinating OPCs and enables clear visualization of membrane structures (Kucenas et al., 2008a). No other cells in the spinal cord or at the MEP TZ express both nkx2.2a and olig2, so use of these transgenes allowed us to unambiguously identify membrane sheaths coming from OPCs. […] Thin OPC membrane processes extended toward peripheral motor axons and formed membrane sheaths around them (FIG. 6D). The timing of sheath initiation on peripheral axons coincided with sheath initiation within the spinal cord, and some peripheral sheaths stabilized and elongated during the course of the time-lapse (FIG. 6D). This time-lapse data rules out the possibility that SCH-58261 treatment stimulates SCs to myelinate the nerve, since nkx2.2a^+ OPC processes can be clearly seen ensheathing nerve segments.
To examine whether these membrane sheaths were in fact myelin, we treated gpr126 mutants from 36 to 72 hpf with SCH-58261 or DMSO, fixed larvae at 4 dpf, and labeled with an antibody specific to myelin basic protein (MBP) using immunohistochemistry (Kucenas et al., 2009). In mutants treated with DMSO, we observed MBP only on a short segment of the proximal nerve root (FIG. 6E), which is consistent with our previous data showing that differentiated MEP glia express MBP in this region (Smith et al., 2014). […] As further confirmation that peripheral OPCs myelinate spinal motor nerve roots following treatment with SCH-58261, we imaged gpr126^−/− larvae expressing the transgenes mbp:egfp and olig2:dsred from 72 to 86 hpf (n=3) (FIG. 6F). In these time-lapses, we observed olig2^+ OPCs beginning to ensheath peripheral nerves with mbp^+ membrane tubes. Out of 12 nerves imaged, OPCs migrated out of the spinal cord onto 4 nerves, and an additional 3 nerves had OPCs already present at the beginning of the time-lapse. Multiple EGFP^+ membrane tubes extended from single OPCs and ensheathed most of the nerve root on all 7 nerves with OPCs present. These long membrane tubes were consistent with the pattern of MBP antibody labeling on the nerves of SCH-58261-treated mutants (FIG. 6E). Both the MBP antibody and mbp:egfp labeling were closely associated with an olig2^+ cell body, providing further evidence that peripherally-migrated OPCs and not SCs, initiate myelination in gpr126 mutants treated with SCH-58261 (FIGS. 6D&E). From these experiments, we conclude that OPCs can be recruited onto peripheral motor nerves and initiate myelination, even in the presence of MEP glia and SCs.

MEP glia = assay: Presence of MEP glia (sox10+/olig2+ cells, wif1 in situ hybridization) on motor nerves; assay type: in vivo, zebrafish; conditions: for percentage of motor nerves with sox10+/olig2+ MEP glia at the MEP TZ: 36 to 72 hpf, vs DMSO, p=0.14
Description: Larvae were fixed in 4% PFA at 4° C. overnight and stored in 100% methanol at −20° C. and processed for in situ RNA hybridization. Plasmids were linearized with appropriate restriction enzymes and cRNA preparation was carried out using Roche DIG-labeling reagents and RNA polymerases (NEB). We used a previously published probe for wif1 (Smith et al., 2014). After in situ hybridization, embryos were embedded in 1.5% agarose/30% sucrose and frozen in 2-methylbutane chilled by immersion in liquid nitrogen. We collected 20 μm transverse sections on microscope slides using a cryostat microtome and covered with 75% glycerol. Images were obtained using a Zeiss AxioObserver inverted microscope using a 40× oil immersion objective. All images were imported into Adobe Photoshop. Adjustments were limited to levels, contrast, and cropping.
We therefore sought to determine whether antagonizing the A2a AR lead to ectopic OPC migration simply by perturbing MEP glial development. MEP glia can be identified by the co-expression of sox10:eos and olig2:dsred as well as expression of wnt inhibitory factor 1 (wif1) (Smith et al., 2014).

[2] = tested on: OPC migration through the MEP TZ; conditions: 10 μM, 24 to 72 hpf, 3 larvae imaged 55 to 72 hpf
Description: Embryos were anesthetized with 0.01% 3-aminobenzoic acid ester (Tricaine), immersed in 0.8% low-melting point agarose and mounted laterally in glass-bottomed 35 mm petri dishes (Electron Microscopy Sciences). After mounting, the petri dish was filled with egg water containing PTU and Tricaine. For some experiments, chemical compounds were also dissolved in the water. A 25× multi-immersion objective (NA=0.8), 40× oil objective (NA=1.4) and a 40× water objective (NA=1.1) mounted on a motorized Zeiss AxioObserver ZI microscope equipped with a Quorum WaveFX-XI spinning disc confocal system (Quorum Technologies Inc.) were used to capture images. Image processing was performed with MetaMorph and Photoshop to enhance brightness and contrast of images. The Fiji plugin MTrackJ was used to annotate time-lapse movies (Meijering et al., 2012).
In order to distinguish OPCs from motor neurons, we used embryos expressing olig2:dsred and sox10:eos, where sox10 regulatory elements drive expression of Eos in central and peripheral glia. […] We treated these embryos with 10 μM of CGS-15943 from 24 to 72 hpf and imaged 3 larvae (10 nerves total) from 55 to 72 hpf.

perineurial glia (PG) = conditions: 1.25 μm CGS-15943, 36 to 55 hpf
[3] = dose responses of selective A1, A2b, A3 antagonists
[4] = gpr126−/− mbp:egfp;olig2:dsred, imaged 72 to 86 hpf, 12 nerves imaged

Compound: Cn1c(=O)c2[nH]c(C3CCCC3)nc2n(C)c1=O [CPT, 8-cyclopentyltheophylline]
- number of peripheral olig2+ OPCs (peripheral olig2^+ OPCs; [3]): did not observe peripheral OPCs

Compound: NS(=O)(=O)c1cccc2c1c([N+](=O)[O-])cc1[nH]c(=O)c(=O)[nH]c12 [NBQX, 2,3-Dioxo-6-nitro-1,2,3,4-tetrahydrobenzo[f]quinoxaline-7-sulfonamide]
- peripherally migrated OPCs at 3 dpf after neurotransmitter receptor antagonist (peripheral olig2^+ OPCs; 36 to 72 hpf, olig2:dsred): significant numbers of peripherally-migrated OPCs

Compound: CC1(C)[C@@H](OC(=O)CCC(=O)O)CC[C@]2(C)[C@H]3C(=O)C=C4[C@@H]5C[C@@](C)(C(=O)O)CC[C@]5(C)CC[C@@]4(C)[C@]3(C)CC[C@@H]12 [carbenoxolone]
- larvae that died at this dose (larvae): 9
- peripherally-migrated OPCs, treatment alone versus combined with TeNT mRNA (peripheral olig2^+ OPCs; 10 μM, 36 to 72 hpf, counted at 72 hpf, p=0.04): more peripherally-migrated OPCs
- peripherally-migrated OPCs at 3 dpf (peripheral olig2^+ OPCs; 36 to 72 hpf, p<0.001 for 10 μM and p<0.0001 for 20 μM): significant numbers of peripherally-migrated OPCs

Compound: CCCn1c(=O)c2[nH]c(-c3ccc(OCC(=O)Nc4ccc(C#N)cc4)cc3)nc2n(CCC)c1=O [MRS-1754]
- number of peripheral olig2+ OPCs (peripheral olig2^+ OPCs; [3]): did not observe peripheral OPCs

Compound: C[C@]12N[C@H](Cc3ccccc31)c1ccccc12 [MK-801, (5S,10R)-(+)-5-Methyl-10,11-dihydro-5H-dibenzo[a,d]cyclohepten-5,10-imine maleate]
- peripherally migrated OPCs at 3 dpf after neurotransmitter receptor antagonist (peripheral olig2^+ OPCs; 36 to 72 hpf, olig2:dsred): resulted in peripheral OPC migration

Compound: CCOC(=O)C1=C(C)NC(c2ccccc2)=C(C(=O)OCc2ccccc2)C1C#Cc1ccccc1 (stereo not drawn) [MRS-1191]
- number of peripheral olig2+ OPCs (peripheral olig2^+ OPCs; [3]): did not observe peripheral OPCs

Compound: COc1cc2ncnc(Nc3cccc(Cl)c3)c2cc1OC [AG1478]
- peripheral OPC migration (peripheral olig2^+ cells): robust peripheral OPC migration

Compound: Nc1nc2c(cnn2CCc2ccccc2)c2nc(-c3ccco3)nn12 [SCH-58261, 7-(2-phenylethyl)-5-amino-2-(2-furyl)-pyrazolo-[4,3-e]-1,2,4-triazolo[1,5-c]pyrimidine]
- number of Eos+ cells per nerve compared with DMSO (Eos^+ cells): not significantly different
- number of peripheral olig2+ OPCs (peripheral olig2^+ OPCs; 10 μM, p<0.01 compared to DMSO): significant numbers of peripheral olig2^+ OPCs
- peripheral OPC migration by treatment window (peripheral olig2^+ OPCs; 10 μM, exposure beginning later than 54 hpf or ending earlier than 54 hpf, counted at 3 dpf): did not result in any peripheral OPC migration
- peripheral OPCs in WT or adora2aa−/− mutants (peripheral olig2^+ OPCs; SCH-58261 36 to 72 hpf, olig2:dsred, treatment p<0.0001, genotype p=0.53): observed peripheral OPCs in both genotypes
- olig2+ OPCs in the periphery of gpr126 mutants ([1]; 10 μM, 36 to 72 hpf, vs DMSO, p=0.009): significant number of olig2^+ OPCs in the periphery
- MBP antibody labeling on peripheral nerves ([1]; gpr126 mutants treated 36 to 72 hpf, fixed at 4 dpf): MBP labeling was present further distally along the nerve
- nerves with OPCs on which EGFP+ membrane tubes ensheathed most of the nerve root ([1]; gpr126−/− mbp:egfp;olig2:dsred, imaged 72 to 86 hpf): 7 nerves
- additional nerves with OPCs already present at the beginning of the time-lapse [1, 4]: 3 nerves
- nerves onto which OPCs migrated out of the spinal cord during time-lapse [1, 4]: 4 nerves
- ensheathment of peripheral motor axons by nkx2.2a+/olig2+ OPCs (time-lapse) ([1]; nkx2.2a:megfp;olig2:dsred;gpr126−/−, treated 36 to 72 hpf): initiate ensheathment of peripheral spinal motor axons
- percentage of motor nerves with sox10+/olig2+ MEP glia at the MEP TZ (MEP glia; 10 μM): no differences

Compound: Nc1nc2ccc(Cl)cc2c2nc(-c3ccco3)nn12 [CGS-15943, 9-Chloro-2-(2-furanyl)-[1,2,4]triazolo[1,5-c]quinazolin-5-amine]
- number of peripheral olig2+ OPCs (peripheral olig2^+ OPCs; doses of 1.25 and 20 μM, p<0.01): significant peripheral OPC migration
- wif1+ MEP glia (in situ hybridization) (MEP glia; 1.25 μM): observed wif1^+ MEP glia; also recorded: have wif1^+ MEP glia
- percentage of motor nerves with sox10+/olig2+ MEP glia at the MEP TZ (MEP glia; 1.25 μM): no differences
- OPCs migrating through a single MEP TZ [2]: ≤ 2
- nerves on which OPC cell bodies migrated onto peripheral spinal motor nerves during imaging [2]: 6 out of 10
- nerves on which OPCs extend membrane processes through the MEP TZ [2]: 9 out of 10
- nerves with OPCs already present before 60 hpf [2]: 3 out of 10
- nerves with olig2+/sox10− motor neurons in the periphery [2]: 0 out of 10
- PG extension from the spinal cord along the motor nerve (mean SEM) (perineurial glia (PG); 55 hpf larvae, 10 nerves per larva): 24.94±1.75 μm
- PG extension compared with DMSO-treated larvae (perineurial glia (PG); p=0.28): no difference in PG extension
